US20100015141A1, “4-PHENOXY-6-ARYL-1H-PYRAZOLO[3,4-D]PYRIMIDINE AND N-ARYL-6-ARYL-1H-PYRAZOLO[3,4-D]PYRIMIDIN-4-AMINE COMPOUNDS, THEIR USE AS MTOR KINASE AND PI3 KINASE INHIBITORS, AND THEIR SYNTHESES” (Wyeth, priority 2008, published 2010)

What was measured:
Type in all cases: biochemical
PI3K-α = PI3K-α (Homo sapiens, UniProt P42336); assay: PI3K-alpha fluorescence polarization assay; settings: 20 μM PIP2, 25 μM ATP
Experimental: (§1) The reaction buffer was 20 mM HEPES pH7.5, 2 mM MgCl2, 0.05% CHAPS, and 0.01% βME (added fresh). The substrate solution was 40 μM PIP2 (diC8, Echelon, Salt Lake City Utah cat #P-4508, 1 mM in water) and 50 μM ATP in the reaction buffer. Nunc 384-well black polypropylene fluorescent plates were used for PI3K assays. The assay is run by putting 9.5 μl of freshly diluted enzyme in the reaction buffer per well, adding 0.5 μl of diluted drug or DMSO, and mixing. Then 10 μl of the substrate solution is added to each well to start the reaction. A final concentration of 20 μM PIP2 and 25 μM ATP in the reaction was used. Reactions were allowed to proceed for 30-60 minutes at room temperature. After 30-60 minutes, 20 μl of a solution of 10 nM TAMRA detector (Red detector probe-Echelon) and 2.5 uM of GST-murineGRP (1.5 mg/ml in 17% glycerol) was added per well to stop the reaction. The resulting solution was mixed well and allowed to stand for 90-110 minutes before reading plate. Assay Plates were read on Perkin-Elmer Envision plate readers with appropriate filters for Tamra [BODIPY-TMRI(1,3,4,5)P4]. Data obtained were used to calculate enzymatic activity and enzyme inhibition by inhibitor compounds. It is important to keep Red probe solutions dark. This procedure is adapted from Echelon Biosciences Inc procedure for their PI3-Kinase fluorescence polarization activity Assay kit Product number K-1100.

PI3K-γ = PI3K-γ (Homo sapiens, UniProt P48736); assay: PI3K-gamma fluorescence polarization assay; settings: 20 μM PIP2, 25 μM ATP
Experimental: as §1

mTOR = mTOR (Homo sapiens, UniProt P42345); assay: mTOR enzyme assay (DELFIA, His6-S6K phosphorylation); design: FLAG; settings: 100 μM ATP, 1.25 μM His6-S6K

PI3K-α, sequence (P42336 whole entry, species assumed): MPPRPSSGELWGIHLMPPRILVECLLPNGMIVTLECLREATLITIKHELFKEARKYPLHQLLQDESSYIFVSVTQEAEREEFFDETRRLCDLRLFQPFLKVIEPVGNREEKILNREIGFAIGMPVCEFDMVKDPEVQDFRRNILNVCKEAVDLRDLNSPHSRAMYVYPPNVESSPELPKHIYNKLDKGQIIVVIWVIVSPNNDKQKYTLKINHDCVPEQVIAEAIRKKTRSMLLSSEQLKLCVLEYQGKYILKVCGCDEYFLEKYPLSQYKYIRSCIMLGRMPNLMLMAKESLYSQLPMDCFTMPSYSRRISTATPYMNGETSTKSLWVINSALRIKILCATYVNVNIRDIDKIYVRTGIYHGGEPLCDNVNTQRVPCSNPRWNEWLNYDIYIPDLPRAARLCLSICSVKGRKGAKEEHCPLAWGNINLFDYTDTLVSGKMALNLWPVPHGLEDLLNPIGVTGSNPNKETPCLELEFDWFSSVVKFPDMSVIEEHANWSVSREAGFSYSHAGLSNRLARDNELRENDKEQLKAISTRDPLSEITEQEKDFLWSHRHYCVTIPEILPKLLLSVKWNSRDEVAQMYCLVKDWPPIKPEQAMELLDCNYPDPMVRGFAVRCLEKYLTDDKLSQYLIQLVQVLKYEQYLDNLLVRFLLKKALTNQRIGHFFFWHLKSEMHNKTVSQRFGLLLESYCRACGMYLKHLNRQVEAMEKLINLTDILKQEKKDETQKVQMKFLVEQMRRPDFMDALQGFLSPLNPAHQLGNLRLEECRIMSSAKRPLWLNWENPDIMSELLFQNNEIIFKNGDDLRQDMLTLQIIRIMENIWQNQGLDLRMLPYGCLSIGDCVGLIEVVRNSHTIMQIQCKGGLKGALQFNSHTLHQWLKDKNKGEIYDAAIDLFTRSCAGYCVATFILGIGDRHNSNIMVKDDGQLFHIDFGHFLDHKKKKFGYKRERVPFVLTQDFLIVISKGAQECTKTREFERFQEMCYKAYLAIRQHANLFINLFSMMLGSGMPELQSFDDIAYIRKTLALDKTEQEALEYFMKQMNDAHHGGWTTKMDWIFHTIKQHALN
PI3K-α, sequence (P27986 whole entry partner, species assumed): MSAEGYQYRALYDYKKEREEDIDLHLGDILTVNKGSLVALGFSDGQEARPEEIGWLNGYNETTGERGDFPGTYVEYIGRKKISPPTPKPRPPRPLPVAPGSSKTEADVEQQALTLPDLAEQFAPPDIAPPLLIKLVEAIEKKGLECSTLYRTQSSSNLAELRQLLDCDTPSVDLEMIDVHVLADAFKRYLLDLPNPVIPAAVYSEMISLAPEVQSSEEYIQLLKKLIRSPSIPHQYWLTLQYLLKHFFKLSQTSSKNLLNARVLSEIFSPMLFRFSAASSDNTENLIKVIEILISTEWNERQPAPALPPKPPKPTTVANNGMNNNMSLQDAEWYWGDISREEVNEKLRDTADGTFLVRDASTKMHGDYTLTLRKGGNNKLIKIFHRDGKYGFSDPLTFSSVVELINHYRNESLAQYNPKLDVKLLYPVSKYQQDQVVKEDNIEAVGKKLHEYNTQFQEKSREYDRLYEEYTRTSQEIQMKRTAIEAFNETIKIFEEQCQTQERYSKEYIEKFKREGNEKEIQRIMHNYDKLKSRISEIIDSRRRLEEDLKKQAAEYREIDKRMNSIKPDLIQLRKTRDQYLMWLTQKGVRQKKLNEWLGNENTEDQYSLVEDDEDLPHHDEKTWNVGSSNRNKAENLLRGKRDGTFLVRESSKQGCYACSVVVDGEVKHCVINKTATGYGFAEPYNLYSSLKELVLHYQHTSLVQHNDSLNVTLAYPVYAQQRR
PI3K-γ, sequence (P48736 whole entry, species assumed): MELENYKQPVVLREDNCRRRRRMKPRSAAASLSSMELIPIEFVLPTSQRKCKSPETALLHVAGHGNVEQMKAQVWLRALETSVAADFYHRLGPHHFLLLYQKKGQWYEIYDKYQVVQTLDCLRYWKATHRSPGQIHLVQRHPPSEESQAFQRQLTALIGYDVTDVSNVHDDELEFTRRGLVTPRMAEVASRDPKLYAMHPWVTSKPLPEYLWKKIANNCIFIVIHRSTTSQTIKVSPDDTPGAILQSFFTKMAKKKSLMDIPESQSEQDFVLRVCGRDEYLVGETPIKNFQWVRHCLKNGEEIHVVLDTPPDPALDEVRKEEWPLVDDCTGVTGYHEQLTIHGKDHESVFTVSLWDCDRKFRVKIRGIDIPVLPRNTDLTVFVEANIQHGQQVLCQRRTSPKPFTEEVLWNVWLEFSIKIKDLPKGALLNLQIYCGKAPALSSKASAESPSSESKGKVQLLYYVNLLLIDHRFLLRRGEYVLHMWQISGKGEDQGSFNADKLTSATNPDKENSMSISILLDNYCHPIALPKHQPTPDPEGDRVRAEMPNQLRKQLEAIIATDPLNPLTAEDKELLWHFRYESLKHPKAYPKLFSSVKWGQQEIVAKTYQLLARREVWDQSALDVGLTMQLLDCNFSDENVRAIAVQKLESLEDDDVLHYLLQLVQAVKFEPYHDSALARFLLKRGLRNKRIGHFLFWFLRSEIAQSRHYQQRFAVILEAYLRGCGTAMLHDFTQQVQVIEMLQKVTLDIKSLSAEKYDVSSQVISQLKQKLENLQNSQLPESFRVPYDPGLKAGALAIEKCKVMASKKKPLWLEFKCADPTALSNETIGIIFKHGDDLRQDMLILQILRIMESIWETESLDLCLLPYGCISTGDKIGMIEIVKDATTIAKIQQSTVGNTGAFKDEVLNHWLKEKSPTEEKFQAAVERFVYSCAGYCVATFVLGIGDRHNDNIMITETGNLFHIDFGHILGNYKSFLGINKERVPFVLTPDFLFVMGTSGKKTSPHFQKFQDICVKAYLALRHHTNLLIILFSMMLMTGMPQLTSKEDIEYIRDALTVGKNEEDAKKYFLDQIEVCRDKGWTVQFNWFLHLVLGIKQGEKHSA

| IC50 (PI3K-α) | IC50 (PI3K-γ) | IC50 (mTOR) | Structure (SMILES) |
| --- | --- | --- | --- |
| 6.03 µM | 7 µM |  | NC(=O)c1cccc(Nc2nc(-c3cccc(O)c3)nc3c2cnn3C2CCN(Cc3ccccc3)CC2)c1 [Example 8, 3-{[1-(1-benzylpiperidin-4-yl)-6-(3-hydroxyphenyl)-1H-pyrazolo[3,4-d]pyrimidin-4-yl]amino}benzamide] |
| 7.28 µM | 5.02 µM |  | NC(=O)c1cccc(Nc2nc(-c3ccccc3)nc3c2cnn3C2CCN(Cc3ccccc3)CC2)c1 [Example 3, 3-{[1-(1-benzylpiperidin-4-yl)-6-phenyl-1H-pyrazolo[3,4-d]pyrimidin-4-yl]amino}benzamide] |
| 6.18 µM | 4.66 µM |  | CC(=O)Nc1cccc(Nc2nc(-c3cccc(O)c3)nc3c2cnn3C2CCN(Cc3ccccc3)CC2)c1 [Example 10, N-(3-{[1-(1-benzylpiperidin-4-yl)-6-(3-hydroxyphenyl)-1H-pyrazolo[3,4-d]pyrimidin-4-yl]amino}phenyl)acetamide] |
| 2.65 µM | 2.75 µM |  | COc1cccc(-c2nc(Nc3ccc(C(N)=O)cc3)c3cnn(C4CCN(Cc5ccccc5)CC4)c3n2)c1 [Example 23, 4-{[1-(1-benzylpiperidin-4-yl)-6-(3-methoxyphenyl)-1H-pyrazolo[3,4-d]pyrimidin-4-yl]amino}benzamide] |
| 6.11 µM | 7 µM |  | NC(=O)c1ccc(Nc2nc(-c3ccccc3)nc3c2cnn3C2CCN(Cc3ccccc3)CC2)cc1 [Example 1, 4-{[1-(1-benzylpiperidin-4-yl)-6-phenyl-1H-pyrazolo[3,4-d]pyrimidin-4-yl]amino}benzamide] |
| 8.31 µM | 7 µM |  | CC(=O)Nc1cccc(Nc2nc(-c3ccccc3)nc3c2cnn3C2CCN(Cc3ccccc3)CC2)c1 [Example 5, N-(3-{[1-(1-benzylpiperidin-4-yl)-6-phenyl-1H-pyrazolo[3,4-d]pyrimidin-4-yl]amino}phenyl)acetamide] |
| > 10 µM | 5.1 µM |  | COc1ccc(Nc2nc(-c3ccccc3)nc3c2cnn3C2CCN(Cc3ccccc3)CC2)cc1OC [Example 2, 1-(1-benzylpiperidin-4-yl)-N-(3,4-dimethoxyphenyl)-6-phenyl-1H-pyrazolo[3,4-d]pyrimidin-4-amine] |
| 3.5 µM | 7 µM |  | NC(=O)c1ccc(Nc2nc(-c3cccc(O)c3)nc3c2cnn3C2CCN(Cc3ccccc3)CC2)cc1 [Example 6, 4-{[1-(1-benzylpiperidin-4-yl)-6-(3-hydroxyphenyl)-1H-pyrazolo[3,4-d]pyrimidin-4-yl]amino}benzamide] |
| > 10 µM | 8.3 µM |  | CC(=O)Nc1cccc(Nc2nc(-c3ccccc3)nc3c2cnn3C2CCNCC2)c1 [Example 15, N-{3-[(6-phenyl-1-piperidin-4-yl-1H-pyrazolo[3,4-d]pyrimidin-4-yl)amino]phenyl}acetamide] |
| > 10 µM | 10.1 µM |  | c1ccc(CN2CCC(n3ncc4c(Nc5ccc6[nH]ccc6c5)nc(-c5ccccc5)nc43)CC2)cc1 [Example 4, 1-(1-benzylpiperidin-4-yl)-N-1H-indol-5-yl-6-phenyl-1H-pyrazolo[3,4-d]pyrimidin-4-amine] |

Continued, molecule first:

| Structure (SMILES) | IC50 (PI3K-α) | IC50 (PI3K-γ) | IC50 (mTOR) |
| --- | --- | --- | --- |
| NC(=O)c1ccc(Nc2nc(-c3ccc(O)cc3)nc3c2cnn3C2CCN(Cc3ccccc3)CC2)cc1 [Example 24, 4-{[1-(1-benzylpiperidin-4-yl)-6-(4-hydroxyphenyl)-1H-pyrazolo[3,4-d]pyrimidin-4-yl]amino}benzamide] | 5.45 µM | 5.25 µM |  |
| COc1cccc(-c2nc(Oc3ccc(OC)c(OC)c3)c3cnn(C)c3n2)c1 [Example 45, 4-(3,4-dimethoxyphenoxy)-6-(3-methoxyphenyl)-1-methyl-1H-pyrazolo[3,4-d]pyrimidine] | 0.653 µM | 1.29 µM | > 20 µM |
| COc1ccc(Nc2nc(-c3ccccc3)nc3c2cnn3C2CCNCC2)cc1OC [Example 13, N-(3,4-dimethoxyphenyl)-6-phenyl-1-piperidin-4-yl-1H-pyrazolo[3,4-d]pyrimidin-4-amine] | > 10 µM | 7.7 µM |  |
| COc1ccc(Nc2nc(-c3ccc(O)cc3)nc3c2cnn3C2CCN(Cc3ccccc3)CC2)cc1OC [Example 30, 4-{1-(1-benzylpiperidin-4-yl)-4-[(3,4-dimethoxyphenyl)amino]-1H-pyrazolo[3,4-d]pyrimidin-6-yl}phenol] | > 5.94 µM | 3.32 µM |  |
| NC(=O)c1ccc(Nc2nc(-c3ccccc3O)nc3c2cnn3C2CCN(Cc3ccccc3)CC2)cc1 [Example 26, 4-{[1-(1-benzylpiperidin-4-yl)-6-(2-hydroxyphenyl)-1H-pyrazolo[3,4-d]pyrimidin-4-yl]amino}benzamide] | 2.25 µM | 4 µM |  |
| COc1ccc(N(C)c2nc(-c3ccccc3)nc3c2cnn3C)cc1OC [Example 36, N-(3,4-dimethoxyphenyl)-N,1-dimethyl-6-phenyl-1H-pyrazolo[3,4-d]pyrimidin-4-amine] | > 9.75 µM |  |  |
| Oc1cccc(-c2nc(Nc3ccc4[nH]ccc4c3)c3cnn(C4CCN(Cc5ccccc5)CC4)c3n2)c1 [Example 9, 3-[1-(1-benzylpiperidin-4-yl)-4-(1H-indol-5-ylamino)-1H-pyrazolo[3,4-d]pyrimidin-6-yl]phenol] | > 10 µM | 13.1 µM |  |
| NC(=O)c1ccc(Nc2nc(-c3cccc([N+](=O)[O-])c3)nc3c2cnn3C2CCN(Cc3ccccc3)CC2)cc1 [Example 21, 4-{[1-(1-benzylpiperidin-4-yl)-6-(3-nitrophenyl)-1H-pyrazolo[3,4-d]pyrimidin-4-yl]amino}benzamide] | 2.81 µM | 2.46 µM |  |
| CC(=O)Nc1ccc(Oc2nc(-c3cccc(-c4ccccc4)c3)nc3c2cnn3C)cc1 [Example 53, N-{4-[(6-biphenyl-3-yl-1-methyl-1H-pyrazolo[3,4-d]pyrimidin-4-yl)oxy]phenyl}acetamide] | 4.62 µM | > 10 µM |  |
| Cn1ncc2c(Oc3ccc4[nH]ccc4c3)nc(-c3cccc(-c4ccccc4)c3)nc21 [Example 44, 6-biphenyl-3-yl-4-(1H-indol-5-yloxy)-1-methyl-1H-pyrazolo[3,4-d]pyrimidine] | 2.87 µM | > 10 µM |  |
| CC(=O)Nc1ccc(Oc2nc(-c3cccc(C(F)(F)F)c3)nc3c2cnn3C)cc1 [Example 52, N-[4-({1-methyl-6-[3-(trifluoromethyl)phenyl]-1H-pyrazolo[3,4-d]pyrimidin-4-yl}oxy)phenyl]acetamide] | 1.33 µM | 10.5 µM |  |
| NC(=O)c1cccc(Nc2nc(-c3cccc(O)c3)nc3c2cnn3C2CCNCC2)c1 [Example 18, 3-{[6-(3-hydroxyphenyl)-1-piperidin-4-yl-1H-pyrazolo[3,4-d]pyrimidin-4-yl]amino}benzamide] | > 10 µM | 9.72 µM |  |
| NC(=O)c1ccc(Nc2nc(-c3cccc(C(F)(F)F)c3)nc3c2cnn3C2CCN(Cc3ccccc3)CC2)cc1 [Example 25, 4-({1-(1-benzylpiperidin-4-yl)-6-[3-(trifluoromethyl)phenyl]-1H-pyrazolo[3,4-d]pyrimidin-4-yl}amino)benzamide] | 3.43 µM | 2.25 µM |  |
| CN(C)c1ccc(-c2nc(Oc3ccc4[nH]ccc4c3)c3cnn(C)c3n2)cc1 [Example 40, 4-[4-(1H-indol-5-yloxy)-1-methyl-1H-pyrazolo[3,4-d]pyrimidin-6-yl]-N,N-dimethylaniline] | 3.78 µM | > 10 µM |  |
| CC(=O)Nc1ccc(Oc2nc(-c3ccc(N(C)C)cc3)nc3c2cnn3C)cc1 [Example 51, N-[4-({6-[4-(dimethylamino)phenyl]-1-methyl-1H-pyrazolo[3,4-d]pyrimidin-4-yl}oxy)phenyl]acetamide] | 4.96 µM | > 10 µM |  |
| Oc1cccc(-c2nc(Nc3ccc4[nH]ccc4c3)c3cnn(C4CCNCC4)c3n2)c1 [Example 19, 3-[4-(1H-indol-5-ylamino)-1-piperidin-4-yl-1H-pyrazolo[3,4-d]pyrimidin-6-yl]phenol] | > 10 µM | 5.93 µM |  |
| COc1ccc(Nc2nc(-c3cccc(O)c3)nc3c2cnn3C2CCNCC2)cc1OC [Example 17, 3-{4[(3,4-dimethoxyphenyl)amino]-1-piperidin-4-yl-1H-pyrazolo[3,4-d]pyrimidin-6-yl}phenol] | > 10 µM | 5.84 µM |  |
| COc1ccc(Nc2nc(-c3cccc(O)c3)nc3c2cnn3C2CCN(Cc3ccccc3)CC2)cc1OC [Example 7, 3-{1-(1-benzylpiperidin-4-yl)-4-[(3,4-dimethoxyphenyl)amino]-1H-pyrazolo[3,4-d]pyrimidin-6-yl}phenol] | > 10 µM | 5.92 µM |  |
| COc1ccc(Oc2nc(-c3ccc(N(C)C)cc3)nc3c2cnn3C)cc1OC [Example 47, 4-[4-(3,4-dimethoxyphenoxy)-1-methyl-1H-pyrazolo[3,4-d]pyrimidin-6-yl]-N,N-dimethylaniline] | 6.04 µM | > 10 µM |  |
| Cn1ncc2c(Oc3ccc4[nH]ccc4c3)nc(-c3cccc(C(F)(F)F)c3)nc21 [Example 42, 4-(1H-indol-5-yloxy)-1-methyl-6-[3-(trifluoromethyl)phenyl]-1H-pyrazolo[3,4-d]pyrimidine] | 1.21 µM | 0.956 µM |  |
